Test results published in article PMC7996082, “The translocator protein ligands as mitochondrial functional modulators for the potential anti-Alzheimer agents” (Journal of Enzyme Inhibition and Medicinal Chemistry, 2021).
pIC50, pKi: −log10 of the molar value. Like-named read-outs stand apart in the source and are kept apart here.

Assays:
TSPO = conditions: cited from earlier work
[1] = MTT assay: HT22 cell viability with compound alone; format: cell-based, mouse; conditions: mouse, HT22 cells; HT22 cell viability after 24 h of treatment with 5 μM compound, no Aβ
Experimental: (§1) To a clear 96-well plate (FALCON), the cultured HT-22 cells were seeded in a number of 5,000 per well 24 h prior to the assay. A solution of each test compound (5 µM, 25 µL) was added to each well. After 24 h of incubation at 37 °C, the cells were treated with a 10 µL of MTT solution (3–(4,5-dimethylthiazol-2-yl)-2,5-diphenyltetrazolium bromide, Sigma-Aldrich), incubated for 2 h at 37 °C, and were treated with 135 µL of MTT solubilising solution (10% Triton-X 100 in isopropanol with 0.1 M HCl) for 2 h at 37 °C. The % values of cell viability were determined by using the optical density (OD) values at 560 nm, and normalised by taking the vehicle control (5 µM of DMSO) as […].

[2] = test system: HT22 cells treated with Aβ; experiment: Cellular ROS assay (DCFDA): inhibition of Aβ-induced ROS generation; format: cell-based, mouse; conditions: for inhibition at 5 µM: Mus musculus, HT-22, 5 μM compound; for ROS Inhibition (%): 5 μM compound
Experimental: Among 56 compounds, 23 compounds were selected and further tested for the luciferase-based ATP assay. […] Thus, we chose these two compounds and further evaluated their biological activity by measuring cell viability and reactive oxygen species (ROS) production. The effects on cell viability of each compound under Aβ-induced cytotoxicity were determined by measuring the metabolic activity of NAD(P)H-dependent cellular oxidoreductases using the 3–(4,5-dimethylthiazol-2-yl)-2,5-diphenyl-tetrazolium bromide (MTT) dye. To measure cellular ROS levels, we used a fluorescence indicator, 2′,7′-dichlorofluorescein diacetate (DCFDA), and calculated the percent inhibition of ROS generation by applying the same method used for MTT assays. Compound 7 inhibited Aβ-induced ROS generation (97% at 5 µM) almost to the level of the untreated control (Table 1). […] On the basis of the in vitro activity, we selected compound 7 as the best hit from the initial screening library.

HT22 cells = experiment: MTT assay: HT22 cell viability with compound alone; format: cell-based, mouse; conditions: HT22 cell viability after 24 h of treatment with 5 μM compound, no Aβ
Experimental: as §1

[3] = test system: acute AD model mice (Aβ1-42 ICV injected ICR mice); experiment: Y-maze spontaneous alternation test in acute AD model mice; format: in vivo, mouse; conditions: 30 mg/kg daily, 6 days, i.p.
Experimental: (§2) The acute AD mice model was prepared by administration of Aβ1-42 solution (10% DMSO/90% PBS) to male ICR mice (6 weeks old, 30 − 33 g) via intracerebroventricular (ICV) injection (Aβ1-42 dose: 500 pmol/mouse) as described previously. The wild type mice (B6C3F1) and double APP/PS1 transgenic mice (Tg AD mice model; APPswe/PSEN1dE9) were purchased from Jackson Laboratory (Bar Harbour, ME, USA). The Tg AD model mice were 11 months old at the beginning of the behaviour test, and were housed for 1 month in a room under controlled temperature and fed ad libitum. The behaviour tests were conducted during daytime in air-controlled and soundproof experiment room. The animal experiments were abided by the guidelines of the Institutional Animal Care and Use Committee of Korea Institute of Science and Technology.
To the mice of the acute AD model (n = 7 per group), each test compound (test compound in 20% cyclodextrin, 30 mg/kg) was […] injected daily for 6 days. The Y-maze spontaneous alternation test was performed 1 day after the administration of each test compound. The Y maze was made of three equally spaced black plastic arms (40 L × 10 W × 12 H cm) positioned at an equal angle. Each mouse was placed at the end of one arm and allowed to move freely through the maze for 8 min, and the sequence of arm entries was recorded. The arm entry of the mouse was counted when the all four limbs were within an arm. A set of entries into all three arms is considered as a spontaneous alternation. The spontaneous alternation (%) was calculated by the following equation: Spontaneous alternation (%)=100x[number of alternations/(total number of arm entries – 2)]
We evaluated in vivo activity of 7 and 14 in an acute AD mouse model. The acute AD model mice were generated by the administration of Aβ1-42 peptide (500 pmol) according to the previously reported method, and each compound (30 mg/kg daily) was administered intraperitoneally for 6 days. Piracetam (30 mg/kg daily) was also administered in parallel for comparison. The Y-maze spontaneous alternation tests were performed to measure the recovery of learning and memory deficit in acute AD model mice[38]^,[39]. […] We believe that the treatment of 7 was beneficial for ameliorating Aβ-induced cognitive impairments.

[4] = test system: transgenic AD model mice (APPswe/PSEN1dE9); experiment: Contextual fear conditioning test in transgenic AD model mice; format: in vivo, mouse; conditions: Tg AD model mice, 30 mg/kg daily, 1 month, PO; 30 mg/kg
Experimental: as §2
To the Tg mice of the AD model (n = 7 per group), each test compound (30 mg/kg) was orally administrated daily for 1 month. […] Freezing response was measured by the fear conditioning system without application of CS or US.
In addition, we assessed recovery effects of compound 7 by performing contextual fear conditioning tests.[40] Healthy mice show higher number of total freezing, which is an index of fear learning and memory of rodents; therefore, the number of total freezing responses under fear-relevant stimuli was measured with the compound-treated Tg AD model mice. […]

[5] = test system: transgenic AD model mice (APPswe/PSEN1dE9); experiment: Y-maze spontaneous alternation test in transgenic AD model mice; format: in vivo, mouse; conditions: Tg APPswe/PSEN1dE9 mice, 30 mg/kg daily, 1 month, PO
[6] = test system: HT-22 (mouse hippocampal cells) cells treated with Aβ; experiment: JC-1 assay: recovery of mitochondrial membrane potential (ΔΨm) after Aβ; format: cell-based; conditions: 5 μM compound, 5 μM Aβ, HT22 cells; 0% = Aβ-induced damaged condition, 100% = normal condition
Experimental: Thirty thousand HT-22 cells per well were seeded into a clear 96-well plate (FALCON) at 200 µL per well one day prior to assay. 750 mM of JC-1 (Stratagene) in DMSO stock solution was dissolved into phenol red-free Opti-MEM (GIBCO) medium to make final concentration of 7.5 mM JC-1 per well. Medium was removed from the plate, and 100 µL per well of JC-1 was added. The sample plates were incubated for 1 h and 15 min at 37 °C and washed twice with 100 µL per well of PBS. Subsequently, cells were treated with a 25 µL solution of each compound at 10 µM in Opti-MEM and incubated at 37 °C for 10 min followed by addition of a 25 µL of Aβ (American peptide, 1-42) solution at 10 µM. Fluorescence was measured at every one hour for three hours at ex/em 530 nm/580 nm (“red”) and ex/em 485 nm/530 nm (“green”) by using the Flexstation® 3 (Molecular Devices, USA) reader. The ratio of green to red fluorescence was calculated and normalised by taking the percent changes using vehicle control as 100%.
The selected 56 compounds were purchased and tested by in vitro cell-based assays. Four different cell-based assays (JC-1, MTT, ATP production, and cellular ROS assays) were carried out sequentially. First, the JC-1 assay was performed to screen all 56 compounds, VH001–VH056 (Supplementary Table S1). Since mitochondrial membrane depolarisation is one of the distinct signs of mPTP opening, the mitochondrial uptake of a fluorescent JC-1 dye (5,59,6,69-tetrachloro-1,19,3,39-tetraethylbenzimidazolocarbocyanine iodide) was measured to evaluate the effects of each compound on the mitochondrial membrane potential (ΔΨm). HT22 cells, a mouse hippocampal cell line, were treated with 5 µM of Aβ, incubated with each compound at the same concentration of 5 µM, and subsequently treated with JC-1. On the basis of changes in the red/green fluorescence intensity ratio between the cells treated with Aβ and control, the percent recovery of ΔΨm for each compound was calculated and normalised to the ΔΨm of healthy cells as 100%.
Compd Structure ∆Ψm at 5 Compd Structure ∆Ψm at 5 […]
a After the treatment of each compound (5 μM) and Aβ (5 μM) in HT22 cell, the increase of fluorescence ratio (green/red) was measured and normalized by taking the change of the ratio between 0% (Aβ-induced damaged condition) and 100% (normal condition in the absence of Aβ).

SMILES: CCCCCCN(CCCCCC)C(=O)Cc1c(-c2ccc(F)cc2)[nH]c2ccccc12 [Compound 1, 2–(2-(4-fluorophenyl)-1H-indol-3-yl)-N,N-dihexylacetamide]
- pKi (TSPO; TSPO binding affinity ref 29): 8.49

SMILES: CCCCN(CCCC)C(=O)Cc1c(-c2ccc(Cl)cc2)nc2c(Cl)cc(Cl)cn12 [Compound 2, N,N-dibutyl-2–(6,8-dichloro-2–(4-chloro-phenyl)imidazo[1,2-a]pyridin-3-yl)acetamide]
- pKi (TSPO; TSPO binding affinity ref 30): 8.57

SMILES: CC(=O)N(Cc1ccccc1OC(C)C)c1ccc(Cl)cc1Oc1ccccc1 [Compound 3, N-(4-chloro-2-phenoxyphenyl)-N-(2-isopropoxybenzyl)acetamide]
- pIC50 (TSPO; TSPO binding affinity ref 31): 9.04

SMILES: COc1ccc(OC)c(CN(C(C)=O)c2cc(F)ccc2Oc2ccccc2)c1 [Compound 4, N-(2,5-dimethoxybenzyl)-N-(5-fluoro-2-phenoxyphenyl)acetamide]
- pIC50 (TSPO; TSPO binding affinity ref 31): 8.80

SMILES: CN1C(=O)CN=C(c2ccc(Cl)cc2)c2cc(Cl)ccc21 [Compound 5, 7-chloro-5–(4-chlorophenyl)-1-methyl-1,3-dihydro-2H-benzo[e][1,4]diazepin-2-one]
- pKi (TSPO; TSPO binding affinity ref 32): 8.99

SMILES: COc1ccc(CNC(=O)C(c2cccnc2)N(C(=O)c2csnn2)c2ccc(C(C)(C)C)cc2)cc1 (stereo not shown) [Compound 8]
- viability at 24 h, 5 µM [1]: 34%
- inhibition at 5 µM [2]: -10%

SMILES: CCOc1ccc(-n2c(SC)nc3sc4c(c3c2=O)CCN(C(C)=O)C4)cc1 [Compound 10]
- MTT Viability (%) (HT22 cells): 87%
- ROS Inhibition (%) [2]: −177%

SMILES: CCOc1ccc(-n2c(SCC(C)C)nc3sc4c(c3c2=O)CCN(C(C)=O)C4)cc1 [Compound 11]
- ROS Inhibition (%) [2]: −234%

SMILES: NC(=O)CN1CCCC1=O [Piracetam, piracetam, reference compound]
- Recovery of Y-maze spontaneous alternations [3]: 20%
- Contextual fear conditioning: percent recovery of freezing [4]: −2%
- viability at 24 h, 5 µM [1]: 132%
- inhibition at 5 µM [2]: 129%
- Recovery of Y-maze spontaneous alternations [5]: 33%

SMILES: CCOc1ccc(-c2cc(C(=O)NCc3cccc(OC)c3)c3ccccc3n2)cc1 [VH025]
- Recovery of ΔΨm (%) [6]: 12%

SMILES: CCN(CCNC(=O)c1cc(-c2cccnc2)nc2ccccc12)c1ccccc1 [VH026]
- Recovery of ΔΨm (%) [6]: 49%

SMILES: CC(C)CN(CCCNC(=O)c1cc(Nc2ccccc2)nc2ccccc12)CC(C)C [VH027]
- Recovery of ΔΨm (%) [6]: 25%

SMILES: COc1ccc(CNC(=O)c2cc(OCc3ccc(C)cc3)nc3ccccc23)c(OC)c1 [VH028]
- Recovery of ΔΨm (%) [6]: 51%

SMILES: CCc1ccc(Nc2cc(C(=O)NCCc3cccc(C)c3)c3ccccc3n2)cc1 [VH029]
- Recovery of ΔΨm (%) [6]: 18%

SMILES: CCOc1ccc(-c2cc(C(=O)NCC(C)CN(CC)CC)c3ccccc3n2)cc1 (stereo not shown) [VH030]
- Recovery of ΔΨm (%) [6]: 60%
